# Patent publication US9662327B2 (AGIOS PHARMACEUTICALS, INC, priority 2011, dated 2017)
# Target: IDH1 R132H (Homo sapiens (Human), UniProt O75874, R132H)
# Experiment: Assays for IDH1 R132H Inhibitors (NADPH/aKG, resazurin detection)
# Type: biochemical
# Conditions: IDH1 R132H enzyme, Table 2; read-out: IDHR132H Activity
# Summary of the method: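 Substrate mix held 8 uM NADPH plus 2 mM aKG; buffer was 20 mM Tris pH 7.5 with 150 mM NaCl, 10 mM MgCl2, 0.03% BSA. After 50 min room-temperature reaction, NADPH remaining was detected with 30 μM resazurin mix over 5 min.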
# Chain of IDH1 R132H (O75874 whole entry R132H): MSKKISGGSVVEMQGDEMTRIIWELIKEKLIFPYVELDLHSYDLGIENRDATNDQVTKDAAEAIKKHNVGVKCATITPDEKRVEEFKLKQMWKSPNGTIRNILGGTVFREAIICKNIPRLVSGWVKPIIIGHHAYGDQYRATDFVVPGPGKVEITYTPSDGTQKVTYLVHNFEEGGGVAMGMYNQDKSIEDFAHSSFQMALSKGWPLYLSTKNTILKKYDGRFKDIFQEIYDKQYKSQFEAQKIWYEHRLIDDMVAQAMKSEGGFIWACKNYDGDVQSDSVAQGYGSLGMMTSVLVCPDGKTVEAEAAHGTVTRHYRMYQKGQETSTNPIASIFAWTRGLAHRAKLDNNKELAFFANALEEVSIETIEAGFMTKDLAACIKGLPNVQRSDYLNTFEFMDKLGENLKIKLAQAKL
row,Structure (SMILES),IC50 [nM]
1,CC[C@@H]1CN(c2nc(C3CC3)c3c(c2C#N)CC(C)(C)OC3)CCN1C(=O)Cc1ccccn1 [Compound 290],1000 to 10000
2,CC[C@@H]1CN(c2nc(C3CC3)c3c(c2C#N)CC(C)(C)OC3)CCN1C(=O)c1cscn1 [Compound 293],1000 to 10000
3,CC[C@@H]1CN(c2nc(C3CC3)c3c(c2C#N)CC(C)(C)OC3)CCN1C(=O)Cc1cccnc1 [Compound 294],500 to 1000
4,CC[C@@H]1CN(c2nc(C3CC3)c3c(c2C#N)CC(C)(C)OC3)CCN1C(=O)Cc1ccccc1OC [Compound 295],500 to 1000
5,CC[C@@H]1CN(c2nc(C3CC3)c3c(c2C#N)CC(C)(C)OC3)CCN1C(=O)Cc1cccc(OC)c1 [Compound 296],500 to 1000
6,"CC[C@@H]1CN(c2nc(C3CC3)c3c(c2C#N)CC(C)(C)OC3)CCN1C(=O)CCOC [Compound 297, (R)-8-cyclopropyl-6-(3-ethyl-4-(3-methoxypropanoyl)piperazin-1-yl)-3,3-dimethyl-3,4-dihydro-1H-pyrano[3,4-c]pyridine-5-carbonitrile]",< 500
7,"CCOC(=O)C1CN(c2nc(C(C)C)c3c(c2C#N)CC(C)(C)OC3)CCN1C(=O)c1ccco1 (centres unmarked) [Compound 298, ethyl 4-(5-cyano-8-isopropyl-3,3-dimethyl-3,4-dihydro-1H-pyrano[3,4-c]pyridin-6-yl)-1-(furan-2-carbonyl)piperazine-2-carboxylate]",1000 to 10000
8,"COc1ccc(NC(=O)N2CCN(c3nc(C4CCCCC4)c4c(c3C#N)CCOC4)C[C@H]2C)cc1 [Compound 299, (R)-4-(5-cyano-8-cyclohexyl-3,4-dihydro-1H-pyrano[3,4-c]pyridin-6-yl)-N-(4-methoxyphenyl)-2-methylpiperazine-1-carboxamide]",1000 to 10000
9,"C[C@@H]1CN(c2nc(C3CCCCC3)c3c(c2C#N)CCOC3)CCN1C(=O)Nc1ccccc1F [Compound 300, (R)-4-(5-cyano-8-cyclohexyl-3,4-dihydro-1H-pyrano[3,4-c]pyridin-6-yl)-N-(2-fluorophenyl)-2-methylpiperazine-1-carboxamide]",1000 to 10000
10,"C[C@@H]1CN(c2nc(C3CC3)c3c(c2C#N)CC(C)(C)OC3)[C@@H](C)CN1C(=O)c1ccoc1 [Compound 308, 8-cyclopropyl-6-((2S,5R)-4-(furan-3-carbonyl)-2,5-dimethylpiperazin-1-yl)-3,3-dimethyl-3,4-dihydro-1H-pyrano[3,4-c]pyridine-5-carbonitrile]",1000 to 10000
11,C[C@@H]1CN(c2nc(C3CC3)c3c(c2C#N)CC(C)(C)OC3)[C@@H](C)CN1C(=O)Cc1cccs1 [Compound 309],1000 to 10000
12,"COCCC(=O)N1C[C@H](C)N(c2nc(C3CC3)c3c(c2C#N)CC(C)(C)OC3)C[C@H]1C [Compound 310, 8-cyclopropyl-6-((2S,5R)-4-(3-methoxypropanoyl)-2,5-dimethylpiperazin-1-yl)-3,3-dimethyl-3,4-dihydro-1H-pyrano[3,4-c]pyridine-5-carbonitrile]",1000 to 10000
13,"CCOC(=O)C1CN(c2nc(C(C)C)c3c(c2C#N)CC(C)(C)OC3)CCN1C(=O)CCOC (centres unmarked) [Compound 311, ethyl 4-(5-cyano-8-isopropyl-3,3-dimethyl-3,4-dihydro-1H-pyrano[3,4-c]pyridin-6-yl)-1-(3-methoxypropanoyl)piperazine-2-carboxylate]",500 to 1000
14,"COCCC(=O)N1CCN(c2nc(C3CCCCC3)c3c(c2C#N)CC(C)(C)OC3)C[C@H]1C [Compound 312, (R)-8-cyclohexyl-6-(4-(3-methoxypropanoyl)-3-methylpiperazin-1-yl)-3,3-dimethyl-3,4-dihydro-1H-pyrano[3,4-c]pyridine-5-carbonitrile]",1000 to 10000
15,"CCOC(=O)C1CN(c2nc(C3CCCCC3)c3c(c2C#N)CCOC3)CCN1C(=O)CCSC (centres unmarked) [Compound 313, ethyl 4-(5-cyano-8-cyclohexyl-3,4-dihydro-1H-pyrano[3,4-c]pyridin-6-yl)-1-(3-(methylthio)-propanoyl)piperazine-2-carboxylate]",1000 to 10000
16,"CCOC(=O)C1CN(c2nc(C3CCCCC3)c3c(c2C#N)CCOC3)CCN1C(=O)c1ccco1 (centres unmarked) [Compound 314, ethyl 4-(5-cyano-8-cyclohexyl-3,4-dihydro-1H-pyrano[3,4-c]pyridin-6-yl)-1-(furan-2-carbonyl) piperazine-2-carboxylate]",1000 to 10000
17,"CCOC(=O)C1CN(c2nc(C3CCCCC3)c3c(c2C#N)CCOC3)CCN1C(=O)OCCOC (centres unmarked) [Compound 315, 2-ethyl-1-(2-methoxyethyl) 4-(5-cyano-8-cyclohexyl-3,4-dihydro-1H-pyrano[3,4-c]pyridin-6-yl)-piperazine-1,2-dicarboxylate]",1000 to 10000
18,"CC1(C)Cc2c(C#N)c(N3CCN(C(=O)c4ccoc4)C(C)(C)C3)nc(C3CC3)c2CO1 [Compound 318, 8-cyclopropyl-6-(4-(furan-3-carbonyl)-3,3-dimethylpiperazin-1-yl)-3,3-dimethyl-3,4-dihydro-1H-pyrano[3,4-c]pyridine-5-carbonitrile]",1000 to 10000
19,CC1(C)Cc2c(C#N)c(N3CCN(C(=O)c4ccco4)C(C)(C)C3)nc(C3CC3)c2CO1 [Compound 319],1000 to 10000
20,"CSCCC(=O)N1CCN(c2nc(C3CC3)c3c(c2C#N)CC(C)(C)OC3)CC1(C)C [Compound 320, 8-cyclopropyl-6-(3,3-dimethyl-4-(3-(methylthio)propanoyl)piperazin-1-yl)-3,3-dimethyl-3,4-dihydro-1H-pyrano[3,4-c]pyridine-5-carbonitrile]",1000 to 10000
21,Cc1occc1C(=O)N1CCN(c2nc(C3CC3)c3c(c2C#N)CC(C)(C)OC3)CC1(C)C [Compound 321],1000 to 10000
22,CC(=O)OCCCN1CCN(c2nc(C3CC3)c3c(c2C#N)CC(C)(C)OC3)C[C@H]1C(C)C [Compound 322],1000 to 10000

# The remaining lines, values ahead:
row,IC50 [nM],Structure (SMILES)
1,1000 to 10000,CC(C)NC(=O)N1CCN(c2nc(C3CC3)c3c(c2C#N)CC(C)(C)OC3)C[C@H]1C(C)C [Compound 287]
2,< 500,"CC(C)[C@@H]1CN(c2nc(C3CCC3)c3c(c2C#N)CC(C)(C)OC3)CCN1C(=O)c1ccoc1 [Compound 288, (R)-8-cyclobutyl-6-(4-(furan-3-carbonyl)-3-isopropylpiperazin-1-yl)-3,3-dimethyl-3,4-dihydro-1H-pyrano[3,4-c]pyridine-5-carbonitrile]"
3,< 500,"CC(C)[C@@H]1CN(c2nc(C3CCC3)c3c(c2C#N)CC(C)(C)OC3)CCN1C(=O)Cc1cccs1 [Compound 289, (R)-8-cyclobutyl-6-(3-isopropyl-4-(2-(thiophen-2-yl)acetyl)piperazin-1-yl)-3,3-dimethyl-3,4-dihydro-1H-pyrano[3,4-c]pyridine-5-carbonitrile]"
4,1000 to 10000,"Cc1ccc(NC(=O)N2CCN(c3nc(C4CC4)c4c(c3C#N)CC(C)(C)OC4)C[C@H]2C(C)C)cc1 [Compound 301, (R)-4-(5-cyano-8-cyclopropyl-3,3-dimethyl-3,4-dihydro-1H-pyrano[3,4-c]pyridin-6-yl)-2-isopropyl-N-p-tolylpiperazine-1-carboxamide]"
5,1000 to 10000,"Cc1ccc(S(=O)(=O)N2CCN(c3nc(C4CC4)c4c(c3C#N)CC(C)(C)OC4)C[C@H]2C(C)C)cc1 [Compound 302, (R)-8-cyclopropyl-6-(3-isopropyl-4-tosylpiperazin-1-yl)-3,3-dimethyl-3,4-dihydro-1H-pyrano[3,4-c]pyridine-5-carbonitrile]"
6,1000 to 10000,"CC(C)[C@@H]1CN(c2nc(C3CC3)c3c(c2C#N)CC(C)(C)OC3)CCN1C(=O)Nc1ccc(C#N)cc1 [Compound 303, (R)-4-(5-cyano-8-cyclopropyl-3,3-dimethyl-3,4-dihydro-1H-pyrano[3,4-c]pyridin-6-yl)-N-(4-cyanophenyl)-2-isopropylpiperazine-1-carboxamide]"
7,< 500,"C=CCNC(=O)N1CCN(c2nc(C3CC3)c3c(c2C#N)CC(C)(C)OC3)C[C@H]1C(C)C [Compound 304, (R)—N-allyl-4-(5-cyano-8-cyclopropyl-3,3-dimethyl-3,4-dihydro-1H-pyrano[3,4-c]pyridin-6-yl)-2-isopropylpiperazine-1-carboxamide]"
8,1000 to 10000,CC(C)[C@@H]1CN(c2nc(C3CC3)c3c(c2C#N)CC(C)(C)OC3)CCN1C(=O)C1CCOCC1 [Compound 305]
9,1000 to 10000,"CC(C)[C@@H]1CN(c2nc(C3CC3)c3c(c2C#N)CC(C)(C)OC3)CCN1C(=O)OC(C)(C)C [Compound 306, (R)-tert-butyl 4-(5-cyano-8-cyclopropyl-3,3-dimethyl-3,4-dihydro-1H-pyrano[3,4-c]pyridin-6-yl)-2-isopropylpiperazine-1-carboxylate]"
10,1000 to 10000,"COc1ccc(NC(=O)N2CCN(c3nc(C4CC4)c4c(c3C#N)CC(C)(C)OC4)C[C@H]2C(C)C)cc1 [Compound 316, (R)-4-(5-cyano-8-cyclopropyl-3,3-dimethyl-3,4-dihydro-1H-pyrano[3,4-c]pyridin-6-yl)-2-isopropyl-N-(4-methoxyphenyl)piperazine-1-carboxamide]"
11,< 500,"CC(C)[C@@H]1CN(c2nc(C3CC3)c3c(c2C#N)CC(C)(C)OC3)CCN1C(=O)CCl [Compound 317, (R)-6-(4-(2-chloroacetyl)-3-isopropylpiperazin-1-yl)-8-cyclopropyl-3,3-dimethyl-3,4-dihydro-1H-pyrano[3,4-c]pyridine-5-carbonitrile]"
12,1000 to 10000,"CC(C)[C@@H]1CN(c2nc(C3CC3)c3c(c2C#N)CC(C)(C)OC3)CCN1S(C)(=O)=O [Compound 323, (R)-8-cyclopropyl-6-(3-isopropyl-4-(methylsulfonyl)piperazin-1-yl)-3,3-dimethyl-3,4-dihydro-1H-pyrano[3,4-c]pyridine-5-carbonitrile]"
13,1000 to 10000,"CC(C)[C@@H]1CN(c2nc(C3CC3)c3c(c2C#N)CC(C)(C)OC3)CCN1C(=O)Cn1cncn1 [Compound 324, (R)-6-(4-(2-(1H-1,2,4-triazol-1-yl)acetyl)-3-isopropylpiperazin-1-yl)-8-cyclopropyl-3,3-dimethyl-3,4-dihydro-1H-pyrano[3,4-c]pyridine-5-carbonitrile]"
